Experimental data published in article PMC9161374 (Science Translational Medicine, 2022).
≈ marks a conversion by molar mass, not a printed value. Where “and” joins values, the source holds several entries; their conditions need not be identical. Identical values can stand only once.

Key:
[1] = Tissue distribution study in rats; format: in vivo, Sprague Dawley rats; details: rat, oral 100 mg/kg; for Cmax, RTP in kidney / Cmax, RTP in lung / Cmax, GS-441525 in brain / Cmax, GS-441525 in kidney / Cmax, GS-441525 in lung / Cmax, GS-441525 in liver / Cmax, RTP in liver: individual animals
Protocol: Three rats in each group were anesthetized at 1-, 4-, and 24-hours post-dosing. Blood samples were collected into the heparinized tubes which containing PhosSTOP and DTNB and centrifuged. Tissue samples, including liver, kidney, and lung were harvested after perfusion with saline and immediately homogenized for further analysis as previously described ([64]). […] For RMP and RTP determination, 50 μL of plasma or homogenate was immediately added to 150 μL of 2% formic acid and 5 μL of 10 μM ^13C,^15N-adenosine triphosphate (ATP) aqueous solution, then vortexed thoroughly and centrifuged at 4°C. Supernatant in a volume of 180 μL was mixed with an equivalent volume of water for solid-phase extraction (SPE) with a weak anion exchange plate (Waters Oasis WAX μElution plate). Finally, the eluate was gently evaporated to dryness under a gentle stream of air, and the residue was reconstituted with 100 μL H2O for analysis on a Waters Positive Pressure-96 processor.

[2] = macaques, NCATS of NIH ref 47; cited from earlier work
[3] = test system: SARS-CoV-2 (Omicron, B.1.1.529); assay: microbe, parasite or virus in culture; details: for EC50: Severe acute respiratory syndrome coronavirus 2, Vero C1008, 48 h, read-out: EC50 in Vero E6 cells, SARS-CoV-2 (Omicron, B.1.1.529); for EC90: Severe acute respiratory syndrome coronavirus 2, Vero C1008, read-out: EC90 (Confidence 95%)
SARS-CoV-2 (strain B.1) [4] = assay: SARS-CoV-2 infection in Ad5-hACE2 mice; format: in vivo, Ad5-hACE2 BALB/c mice
SARS-CoV-2 (strain B.1) [5] = test system: SARS-CoV-2 (strain B.1); design: species or system KI-hACE2 mice; details: mouse, in vivo
[6] = Thermodynamic solubility in water; format: physicochemical; details: ultrapure water, 25°C
Protocol: Test compounds were weighed out for measuring the solubility (about 1.5 mg each in three separate 1.5 mL glass vials). For each compound, one vial was used to do the standard and the other two were used to measure the solubility in duplicate. The proper volume of ultrapure water was added to each vial of the solubility sample plate using pipettes. One stir stick was added to each vial and the vials were sealed using a molded polytetrafluoroethylene (PTFE)/silicone plug. […] Then the stir sticks were removed using a magnet, and the samples were transferred from the solubility sample plate into a filter plate with pipettes. All compounds were filtered under a vacuum condition. The filtrate was diluted 1000-fold with a mixture of H2O and acetonitrile (1:1 in v/v). The plates were vortexed for 5 min. For standards (STD), the necessary volume was calculated to dissolve each standard sample to the concentration of 1.5 mg/mL. DMSO was added to each standard sample. The standard vials were covered. The standard plate was placed on the Eppendorf Thermomixer Comfort plate shaker for 5 min at 25°C and 1100 rpm. After 5 min, each compound was completely dissolved. […]

[7] = LogP determination (1-octanol/PBS pH 7.4); format: physicochemical; details: 1-octanol/PBS pH 7.4, pH 7.4
Protocol: The stock solutions of test compounds were prepared in DMSO to 10 mM or 30 mM. The 5 μL of stock solution (30 mM) or 15 μL of stock solution (10 mM) of each sample was placed into their proper 96-well rack. […] The assay was performed in duplicate. One stir stick was added to each vial and sealed with a molded PTFE/Silicone plug. […] After incubation, the stir sticks were removed by a magnet. To separate the phases, the samples were transferred and centrifuged at 25°C at 20,000 g for 20 min. The upper (1-octanol) and lower (buffer) phases were separated and transferred to the empty tubes. Aliquots of 5 μL were taken from the upper phase, followed by 495 μL of methanol. After 1 min of a vortex, aliquots of 50 μL were taken from the diluent, followed by 450 μL of methanol. Aliquots of 50 μL were taken from the lower phase, followed by 450 μL of methanol. The samples were evaluated by LC-MS/MS analysis, and all calculations were carried out using Microsoft Excel.

[8] = pKa determination (fast-UV, Sirius T3); format: physicochemical; details: methanol cosolvent titration (Sirius T3 Titrator); read-out: pKa Value (Basic)
Protocol: The pK a value of test compounds were detected by using a fast-UV method with Sirius T3 Titrator. First, the blank calibration and Fast UV buffer calibration were performed where an empty sample vial was placed in the sample position. The buffer was fully titrated, and reference spectra were collected at all pHs. The sample was then detected with the following process: Methanol was used as a cosolvent to measure the psKa (cosolvent dissociation constant). Five μL of the compound stock solution of 10 mM was added to a sample vial. Three weight/volume ratios of methanol cosolvent were tested and the total starting volume for titration was set to 1.5 mL. A spectrometer detected the turbidity, and the pH range of titration by a fast UV method was 2 to 12. The titration data was obtained from a proper titration and the psKa test result was obtained by Yasuda-Shedlovsky extrapolation method for fast UV psKa method.

[9] = Severe acute respiratory syndrome coronavirus 2, Vero C1008, Omicon, Vero E6, replicates

Row | SMILES | Cmax, GS-441525 in brain ([1]; 1h, 100 mg/kg) | Cmax, GS-441525 in kidney ([1]; 1h, 100 mg/kg) | Cmax, GS-441525 in lung ([1]; 1h, 100 mg/kg) | Cmax, GS-441525 in kidney ([1]; 4h, 100 mg/kg) | Cmax, GS-441525 in lung ([1]; 4h, 100 mg/kg) | Cmax, RTP in lung ([1]; 4h, 100 mg/kg) | Cmax, GS-441525 in brain ([1]; 24h, 100 mg/kg) | Cmax, GS-441525 in kidney ([1]; 24h, 100 mg/kg) | Cmax, GS-441525 in lung ([1]; 24h, 100 mg/kg) | Cmax, RTP in lung ([1]; 24h, 100 mg/kg) | EC50 [3] [nM] | inhibition at 0.625 µM [3, 9] [%] | inhibition at 2.5 µM [3, 9] [%] | inhibition at 5 µM [3, 9] [%] | inhibition at 10 µM [3, 9] [%] | EC90 [3] [nM] | other results
1 | N#C[C@@]1(c2ccc3c(N)ncnn23)O[C@H](CO)[C@@H](O)[C@H]1O [GS-441524, reference compound] | 0.094 nmol/kg and 0 nmol/kg and 0.045 nmol/kg | 42.2 nmol/kg and 25.492 nmol/kg and 37.804 nmol/kg | 6.048 nmol/kg and 4.152 nmol/kg and 6.604 nmol/kg | 28.184 nmol/kg and 26.156 nmol/kg and 22.136 nmol/kg | 4.468 nmol/kg and 3.046 nmol/kg and 3.148 nmol/kg | 0 nmol/kg (2×) and 0.0718 nmol/kg | 0.0569 nmol/kg and 0.0928 nmol/kg and 0.0692 nmol/kg | 0.0683 nmol/kg and 0.0848 nmol/kg and 0.152 nmol/kg | 0.134 nmol/kg and 0.0467 nmol/kg and 0.0435 nmol/kg | 0 nmol/kg (2×) and 0.04488 nmol/kg | 190 | 96.5 | 100 | 100 | 100 | 363 | Cmax ([1]; GS-441524 in brain): 0.073 µmol/kg; Cmax ([1]; GS-441524 in kidney): 35.165 µmol/kg; Cmax ([1]; GS-441524 in liver): 8.776 µmol/kg; Cmax ([1]; GS-441524 in lung): 5.601 µmol/kg; Cmax, RTP in kidney ([1]; 1h): 0 nmol/kg; Cmax, RTP in lung ([1]; 1h): 0 nmol/kg; Cmax, GS-441525 in brain ([1]; 4h): 0 nmol/kg; Cmax, RTP in kidney ([1]; 4h): 0 nmol/kg; Cmax, RTP in kidney ([1]; 24h): 0 nmol/kg; oral bioavailability [2]: 8.3%; inhibition at 0.069 µM ([3]; Severe acute respiratory syndrome coronavirus 2, Vero C1008, Omicon, 0.069 uM, Vero E6, replicates): 0%
2 | CC(C)C(=O)OC[C@H]1O[C@@](C#N)(c2ccc3c(N)ncnn23)[C@H](O)[C@@H]1O [ATV006] | 0.717 nmol/kg and 1.164 nmol/kg and 1.176 nmol/kg | 220.56 nmol/kg and 166.84 nmol/kg and 182.64 nmol/kg | 49 nmol/kg and 29.492 nmol/kg and 44.72 nmol/kg | 49.24 nmol/kg and 31.336 nmol/kg and 40.16 nmol/kg | 10.048 nmol/kg and 8.088 nmol/kg and 8.604 nmol/kg | 0.328 nmol/kg and 0.343 nmol/kg and 0.26 nmol/kg | 0 nmol/kg (2×) and 0.0506 nmol/kg | 0.54 nmol/kg and 7 nmol/kg and 0.459 nmol/kg | 0.136 nmol/kg and 1.289 nmol/kg and 0.0964 nmol/kg | 0.191 nmol/kg and 0.249 nmol/kg and 0 nmol/kg | 106 | 99.7 | 99.9 | 100 | 100 | 269 | Cmax, GS-441525 in liver ([1]; 1h, 100 mg/kg): 56.04 nmol/kg and 36.188 nmol/kg and 53.92 nmol/kg; Cmax, RTP in kidney ([1]; 1h, 100 mg/kg): 0.0784 nmol/kg and 0 nmol/kg and 0.0835 nmol/kg; Cmax, RTP in liver ([1]; 1h, 100 mg/kg): 0.279 nmol/kg and 1.085 nmol/kg and 1.739 nmol/kg; Cmax, RTP in lung ([1]; 1h, 100 mg/kg): 0.167 nmol/kg and 0.107 nmol/kg and 0.1 nmol/kg; Cmax, GS-441525 in brain ([1]; 4h, 100 mg/kg): 0.208 nmol/kg and 0.227 nmol/kg and 0.506 nmol/kg; Cmax, GS-441525 in liver ([1]; 4h, 100 mg/kg): 21.084 nmol/kg and 14.292 nmol/kg and 18.936 nmol/kg; Cmax, RTP in kidney ([1]; 4h, 100 mg/kg): 0.354 nmol/kg and 0.345 nmol/kg and 0.186 nmol/kg; Cmax, RTP in liver ([1]; 4h, 100 mg/kg): 1.765 nmol/kg and 0.82 nmol/kg and 0.878 nmol/kg; Cmax, GS-441525 in liver ([1]; 24h, 100 mg/kg): 0.243 nmol/kg and 2.843 nmol/kg and 0.303 nmol/kg; Cmax, RTP in kidney ([1]; 24h, 100 mg/kg): 0.0664 nmol/kg and 0.068 nmol/kg and 0 nmol/kg; Cmax, RTP in liver ([1]; 24h, 100 mg/kg): 0.325 nmol/kg and 0.223 nmol/kg and 0.759 nmol/kg; Lung viral titer, Log10 (FFU/g) (SARS-CoV-2 (strain B.1) [4]; 250mg/kg orally once daily, 2 dpi, FFA, individual mice): 3.924 Log10 (FFU/g) and 2.623 Log10 (FFU/g) and 3.577 Log10 (FFU/g) and 3.827 Log10 (FFU/g); viral load and pathological damage of the lung (SARS-CoV-2 (strain B.1) [4]; ATV006 250 mg/kg, EIDD-2801 500 mg/kg, orally once daily): reduce the viral load and pathological damage of the lung; SARS-CoV-2 gRNA and sgRNA in lung (SARS-CoV-2 (strain B.1) [5]): hardly detectable; solubility at 24 h [6]: 686 µg/mL (≈ 1900 µM); inhibition at 0.008 µM ([3]; Severe acute respiratory syndrome coronavirus 2, Vero C1008, Omicon, 0.008 uM, Vero E6, replicates): 0%; inhibition at 0.208 µM ([3]; Severe acute respiratory syndrome coronavirus 2, Vero C1008, Omicon, 0.208 uM, Vero E6, replicates): 81.1%; logP at 1 h [7]: 0.86; pKa [8]: 3.66
